Measurements taken from paper PMC9653995, “New Positive TRPC6 Modulator Penetrates Blood–Brain Barrier, Eliminates Synaptic Deficiency and Restores Memory Deficit in 5xFAD Mice” (International Journal of Molecular Sciences, 2022).

System: hippocampal slices from 8-month-old 5xFAD mice
Assay: LTP induction (HFS) in hippocampal Schaffer collateral-CA1 synapses of brain slices, fEPSP recording
Assay type: cell-based, mouse
Conditions: 100 nM, normalized to baseline, mean ± SEM
Description: Long-term potentiation (LTP) is considered a cellular mechanism for long-term memory. LTP deficits have been reported in AD mouse models including 5xFAD mice. We examined whether C20 could improve synaptic plasticity in hippocampal slices of 5xFAD mice. LTP was induced in hippocampal Schaffer collateral-CA1 synapses by high-frequency stimulation (HFS).
Mouse transcardial perfusion was performed with 0–2 °C of holding buffer containing (in mM): 124 NaCl, 2.5 KCl, 24 NaHCO3, 1.2 NaH2PO4, 5 HEPES, 0.5 CaCl2*2H2O, 10 MgCl2*7H2O, 3 Na-pyruvate, and 12.5 D-glucose. […]
After incubation, the slices were placed in a recording chamber and perfused with a constant flow of recording buffer saturated with carbogen. […] Field excitatory postsynaptic potentials (fEPSPs) were recorded from CA1 stratum radiatum in recording buffer (124 mM NaCl, 2.5 mM KCl, 24 mM NaHCO3, 1.2 mM NaH2PO4, 5 mM HEPES, 2 mM CaCl2*2H2O, 0.8 mM MgCl2*7H2O, and 12.5 mM D-glucose) using borosilicate glass microelectrodes (300–400 kΩ) filled with recording buffer. […] Electrophysiological field responses were amplified and controlled using a Multiclamp 700B (Molecular Devices, Sunnyvale, CA, USA), digitized by Digidata 1440A (Molecular Devices, USA) and analyzed by pClamp 10.6 (Axon Instruments, Union City, California, USA). […] The amplitude and slope of the rising phase of EPSP at a level of 20–80% of the peak amplitude were measured. […]

COc1cc2c(cc1OC)C(c1cc3ccccc3oc1=O)=NC(C)(C)C2 [C20, 3-(3-,4-Dihydro-6,7-dimethoxy-3,3-dimethyl-1-isoquinolinyl)-2H-1-benzopyran-2-one]
average fEPSP slope 30–40 min after HFS (8-month-old 5xFAD slices, 5xFAD alone 115.5 ± 3.0%): 149.4 ± 9.7%
average fEPSP slope 30–40 min after HFS (WT slices, WT alone 168.7 ± 4.8%): 161.4 ± 9.6%
